Reference: patent publication US20250101429A1, “siRNAs and shRNAs Targeting HIV and Combinations, Expression Cassettes, Cells and Use Thereof” (BEIJING SOLOBIO GENETECHNOLOGY CO., LTD., priority 2021, published 2025)

How the values were obtained:
Type in all cases: cell-based
[1] = test system: HIV protease inhibitor resistant strain MT2-884; assay: Antiviral activity against protease inhibitor resistant strain MT2-884 in MT2 cells (P24 ELISA); settings: Table 9, MT2 + MT2-884, positive drug, concentration 1 μM
Protocol: The experimental method of example 5 was the same as Step 1 of Example 3, except that the tested strain was a protease inhibitor resistant strain MT2-884, and the infected cells were MT2 cells. Firstly, cell culture and recombinant lentivirus SIV-G3L2 or SIV-G2N infection: Cells were cultured in 6-well plates, and the experimental group SIV-G3L2 or SIV-G2N, SIV-EGFP empty vector control group, positive drug control group (Efavirenz, EFV, Shanghai Desano Pharmaceuticals Co., Ltd., Concentration 1 μM), no drug control group (MT2-884 infection, and no recombinant lentivirus drug administration), and a blank control group were set on the 6-well plates. The recombinant lentiviruses were added to the 6-well plates with the multiplicity of infection (MOI) of 125, 250, 500, 1000 and 2000, respectively, and the recombinant lentivirus SIV-EGFP with MOI of 2000 was added as an empty vector control. Mixed and cultured.
Then virus challenge: the MT2 cells were diluted and inoculated in 96-well plates at 1×10^4 cells/well. […] The OD value was measured with a microplate reader. then average value, and relative concentration was calculated to determine the antiviral activity of the recombinant lentiviruses against MT2-884 in MT2 cells.

HIV-1 IIIB = assay: Antiviral activity of recombinant lentiviruses against HIV-1 IIIB in H9 cells (P24 antigen ELISA); settings: H9 + HIV-1 IIIB, positive drug, concentration 1 μM; for Relative concentration(%): vs no-drug control = 100; for Average concentration of P24: day 7
Protocol: The H9 cells were resuscitated and subcultured in complete medium (RPMI-1640+10% FBS+PS). The cells were resuspended in OPTI-MEM medium, counted and adjusted to a concentration of 5×10^5 cells/ml, and inoculated in 6-well plates with 2 ml per well. The experimental groups SIV-Gag3, SIV-Gag2, SIV-Gag1, SIV-LTR2 or SIV-Nef, SIV-EGFP empty vector control group and blank control group (no HIV-1 IIIB infection, and […]) were set on the 6-well plates. The above recombinant lentiviruses were added to the 6-well plates with the multiplicity of infection (MOI) of 2000, mixed, and cultured at 37° C., 5% CO2 for 24 hours. Each well was supplemented with 4 ml complete medium and cultured at 37° C., 5% CO2 for 72 hours.
(§1) 5 ml of supernatant from each well of 6-well plates was discarded and another 5 ml of fresh complete medium was added. Cells were diluted and inoculated in 96-well plates at 1×10^4 cells/well. 0.5 ml of HIV-1 IIIB was diluted with 5.75 ml of complete medium and mixed. Then 100 μl of virus diluent was added to each well of cells, except for the blank control group, mixed and incubated at 37° C. and 5% CO2. Half volume of liquid was changed on day 2 and day 4 after HIV-1 IIIB infection, respectively. 150 μl of sample was taken from each well on day 7 after infection, sealed and heated at 56° C. for 30 minutes. After the HIV viruses were thermally inactivated, the sample was stored at −20° C., ready for ELISA detection.
HIV-1 P24 antigen detection kit (96T) (Beijing Jinboyi Biotechnology Co., Ltd.) was used for ELISA detection. The OD Value was measured with a microplate reader. Then average value, and relative concentration was calculated to determine the antiviral activity of the recombinant lentiviruses against HIV-1 IIIB in H9 cells.
The H9 cells were resuscitated and subcultured in complete medium (RPMI-1640+10% FBS+PS). The cells were resuspended in OPTI-MEM medium, counted and adjusted to a concentration of 5×10^5 cells/ml, and inoculated in 6-well plates with 2 ml per well. The experimental groups SIV-G3L2, SIV-G2L2, SIV-G1L2, or SIV-G2N, SIV-EGFP empty vector control group, positive drug control group (Efavirenz, EFV, Shanghai Desano Pharmaceuticals Co., Ltd., Concentration 1 μM), no-drug control group (HIV-1 IIIB infection, and no recombinant lentivirus drug administration) and blank control group (no HIV-1 IIIB infection, and no lentivirus drug administration) were set on the 6-well plates. The recombinant lentiviruses were added to the 6-well plates at five doses with the multiplicity of infection (MOI) of 125, 250, 500, 1000, and 2000, and the added volumes were 2.1 μL, 4.2 μL, 8.4 μL, 16.7 μL, 33.3 μL, respectively, with one well for each dose. The recombinant lentivirus SIV-EGFP with MOI of 2000 was added as an empty vector control, the volume was 33.3 μL. Mixed, and cultured at 37° C. and 5% CO2 for 24 hours. Each well was supplemented with 4 ml complete medium and cultured at 37° C., 5% CO2 for 72 hours.
as §1, with “the cells” for “Cells”

[2] = test system: HIV reverse transcriptase inhibitor resistant strain MT2-010; assay: Antiviral activity against reverse transcriptase inhibitor resistant strain MT2-010 in MT2 cells (P24 ELISA); settings: MT2 + MT2-010, positive drug, concentration 1 μM; for Average concentration: P24 ELISA; for Relative concentration(%): vs no-drug control = 100
Protocol: The experimental design of example 4 was the same as that of Example 3, except that the tested strain was a reverse transcriptase inhibitor resistant strain MT2-010, and the infected cells were MT2 cells. Firstly, cell culture and recombinant lentivirus infection: the experimental group SIV-G3L2 or
SIV-G2N, SIV-EGFP empty vector control group, positive drug control group (Efavirenz, EFV, Shanghai Desano Pharmaceuticals Co., Ltd., Concentration 1 μM), no drug control group (MT2-010 infection, and no recombinant lentivirus drug administration), and a blank control group were set on the 6-well plates. The recombinant lentiviruses were added to the 6-well plates with the multiplicity of infection (MOI) of 125, 250, 500, 1000 and 2000, respectively, and the recombinant lentivirus SIV-EGFP with MOI of 2000 was added as an empty vector control. Mixed and cultured.
Then virus challenge: the MT2 cells were diluted and inoculated in 96-well plates at 1×10^4 cells/well. The reverse transcriptase inhibitor resistant strain MT2-010 was diluted with complete culture medium, and mixed. The virus diluent was added into each well of cells, except for the blank control group. Mixed and cultured. The sampling was performed as described in Example 3, and ELISA detection was performed by using the above-mentioned kit. The OD value was measured with a microplate reader. Then average value, and relative concentration was calculated to determine the antiviral activity of the recombinant lentiviruses against MT2-010 in MT2 cells.

Question: Which results are given for `O=C1Nc2ccc(Cl)cc2[C@@](C#CC2CC2)(C(F)(F)F)O1` [EFV, Efavirenz]?
Answer: Average concentration(pg/ml) ([1]; P24 ELISA): 50 pg/mL; Relative concentration(%) ([1]; vs no-drug control = 100): 0.51%; Average concentration (HIV-1 IIIB; Table 3, P24 ELISA day 7): 10; Relative concentration(%) (HIV-1 IIIB; Table 3): 0.05%; Average concentration of P24 (HIV-1 IIIB; Table 4): <10 pg/mL; Relative concentration(%) (HIV-1 IIIB; Table 4): 0.05%; Average concentration of P24 (HIV-1 IIIB; Table 5): <10 pg/mL; Relative concentration(%) (HIV-1 IIIB; Table 5): 0.05%; Average concentration of P24 (HIV-1 IIIB; Table 6): <10 pg/mL; Relative concentration(%) (HIV-1 IIIB; Table 6): 0.05%; Average concentration ([2]; Table 7): 52.69; Relative concentration(%) ([2]; Table 7): 0.17%; Average concentration ([2]; Table 8): 59.36; Relative concentration(%) ([2]; Table 8): 0.21%
